According to ChEMBL document CHEMBL3352414, “Structure based inhibitor design targeting glycogen phosphorylase B. Virtual screening, synthesis, biochemical and biological assessment of novel N-acyl-β-d-glucopyranosylamines” (Bioorg Med Chem, 2014):

Columns and labels:
[1] = target: T1, Glycogen phosphorylase, muscle form (Oryctolagus cuniculus, UniProt P00489); experiment: Inhibition of rabbit skeletal muscle glycogen phosphorylase b assessed as inorganic phosphate release
T1 sequence (P00489 whole entry): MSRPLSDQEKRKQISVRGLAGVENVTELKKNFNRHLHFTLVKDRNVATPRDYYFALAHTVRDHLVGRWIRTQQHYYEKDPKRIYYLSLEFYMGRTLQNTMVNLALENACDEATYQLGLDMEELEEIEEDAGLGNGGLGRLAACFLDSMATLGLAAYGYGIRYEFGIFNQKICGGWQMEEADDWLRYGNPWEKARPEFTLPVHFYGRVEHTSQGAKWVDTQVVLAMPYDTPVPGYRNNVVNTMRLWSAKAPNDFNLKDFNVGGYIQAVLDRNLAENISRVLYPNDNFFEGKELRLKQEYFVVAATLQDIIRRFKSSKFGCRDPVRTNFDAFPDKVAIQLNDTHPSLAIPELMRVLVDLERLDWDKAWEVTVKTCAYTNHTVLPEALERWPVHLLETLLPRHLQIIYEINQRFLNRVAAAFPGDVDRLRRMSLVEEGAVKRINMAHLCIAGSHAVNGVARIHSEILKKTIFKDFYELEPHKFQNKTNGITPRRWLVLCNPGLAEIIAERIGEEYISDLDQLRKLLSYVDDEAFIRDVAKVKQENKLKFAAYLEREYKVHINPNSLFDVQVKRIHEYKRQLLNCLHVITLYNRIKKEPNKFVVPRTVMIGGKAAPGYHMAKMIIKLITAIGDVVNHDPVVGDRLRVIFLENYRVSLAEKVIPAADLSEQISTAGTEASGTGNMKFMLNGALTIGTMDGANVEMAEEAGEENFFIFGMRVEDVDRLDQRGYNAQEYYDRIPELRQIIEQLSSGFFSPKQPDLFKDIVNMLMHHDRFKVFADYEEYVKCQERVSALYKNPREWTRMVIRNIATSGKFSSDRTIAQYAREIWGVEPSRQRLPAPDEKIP

[2] = Permeability in human Caco2 cells; assay type: ADME, cell-based; details: Caco-2, read-out: permeability
[3] = Octanol water partition coefficient, logP of the compound; assay type: physicochemical

SMILES	Ki ([1]; read-out: Ki)	Papp [2]	logP [3]	Ki [1]
O=C(/C=C/c1ccccc1)N[C@@H]1O[C@H](CO)[C@@H](O)[C@H](O)[C@H]1O	18 µM	–	–	–
COc1cc(/C=C/C(=O)N[C@@H]2O[C@H](CO)[C@@H](O)[C@H](O)[C@H]2O)cc(OC)c1	–	8 ×10⁻⁶ cm/s	-0.36	–
Cc1ccc2c(c1)C=C(C(=O)N[C@@H]1O[C@H](CO)[C@@H](O)[C@H](O)[C@H]1O)C(=O)C2	–	3.62 ×10⁻⁶ cm/s	-0.451	–
O=C(Cn1cc(-c2ccccc2)nn1)N[C@@H]1O[C@H](CO)[C@@H](O)[C@H](O)[C@H]1O	180 µM	–	–	–
C[C@H](CC(=O)N[C@@H]1O[C@H](CO)[C@@H](O)[C@H](O)[C@H]1O)c1ccc(C(C)(C)C)cc1	–	9.77 ×10⁻⁶ cm/s	0.33	–
CC(C)(C)c1ccc(/C=C/C(=O)N[C@@H]2O[C@H](CO)[C@@H](O)[C@H](O)[C@H]2O)cc1	–	8.77 ×10⁻⁶ cm/s	0.496	–
COC(=O)c1ccc(/C=C/C(=O)N[C@@H]2O[C@H](CO)[C@@H](O)[C@H](O)[C@H]2O)cc1	–	2.63 ×10⁻⁶ cm/s	-0.805	–
O=C(Nc1ccc2ccccc2c1)N[C@@H]1O[C@H](CO)[C@@H](O)[C@H](O)[C@H]1O	5.2 µM	–	–	–
COC(=O)CCCC(=O)N[C@@H]1O[C@H](CO)[C@@H](O)[C@H](O)[C@H]1O	83 µM	–	–	–
O=C(NC(=O)c1cc2ccccc2[nH]1)N[C@@H]1O[C@H](CO)[C@@H](O)[C@H](O)[C@H]1O	4 µM	–	–	–
O=C(Nc1ccccc1)N[C@@H]1O[C@H](CO)[C@@H](O)[C@H](O)[C@H]1O	18 µM	–	–	–
O=C(N[C@@H]1O[C@H](CO)[C@@H](O)[C@H](O)[C@H]1O)C(F)(F)F	81 µM	–	–	–
CCOC(=O)C(=O)N[C@@H]1O[C@H](CO)[C@@H](O)[C@H](O)[C@H]1O	920 µM	–	–	–
O=C(N[C@@H]1O[C@H](CO)[C@@H](O)[C@H](O)[C@H]1O)[C@H](O)[C@@H](O)[C@@H](O)[C@H](O)CO	225 µM	–	–	–
CC(C)c1ccc([C@@H](C)CC(=O)N[C@@H]2O[C@H](CO)[C@@H](O)[C@H](O)[C@H]2O)cc1	–	7.87 ×10⁻⁶ cm/s	0.075	–
O=C(N[C@@H]1O[C@H](CO)[C@@H](O)[C@H](O)[C@H]1O)c1ccccc1	81 µM	–	–	–
COC(=O)CCC(=O)N[C@@H]1O[C@H](CO)[C@@H](O)[C@H](O)[C@H]1O	170 µM	–	–	–
O=C(Nc1ccccn1)C(=O)N[C@@H]1O[C@H](CO)[C@@H](O)[C@H](O)[C@H]1O	230 µM	–	–	–
CC[C@H](CC(=O)N[C@@H]1O[C@H](CO)[C@@H](O)[C@H](O)[C@H]1O)c1ccc(C)c(C)c1	–	7.67 ×10⁻⁶ cm/s	0.01	–

SMILES	Ki ([1]; read-out: Ki)	Papp [2]	logP [3]	Ki [1]
O=C(Nc1cccc2ccccc12)C(=O)N[C@@H]1O[C@H](CO)[C@@H](O)[C@H](O)[C@H]1O	144 µM	–	–	–
O=C(CCc1ccccc1)N[C@@H]1O[C@H](CO)[C@@H](O)[C@H](O)[C@H]1O	85 µM	–	–	–
O=C(O)C(=O)N[C@@H]1O[C@H](CO)[C@@H](O)[C@H](O)[C@H]1O	710 µM	–	–	–
O=C(CCNC(=O)c1ccc(F)c(F)c1)N[C@@H]1O[C@H](CO)[C@@H](O)[C@H](O)[C@H]1O	–	3.14 ×10⁻⁶ cm/s	-0.807	–
O=C(N[C@@H]1O[C@H](CO)[C@@H](O)[C@H](O)[C@H]1O)c1cccc2ccccc12	10 µM	–	–	–
O=C(CCc1ncc(-c2ccccc2)o1)N[C@@H]1O[C@H](CO)[C@@H](O)[C@H](O)[C@H]1O	–	3.65 ×10⁻⁶ cm/s	-0.915	–
O=C(Nc1ccccc1)C(=O)N[C@@H]1O[C@H](CO)[C@@H](O)[C@H](O)[C@H]1O	100 µM	–	–	–
O=C(C[C@H](c1ccc(Cl)cc1)C1CC1)N[C@@H]1O[C@H](CO)[C@@H](O)[C@H](O)[C@H]1O	–	6.97 ×10⁻⁶ cm/s	0.083	–
O=C(N[C@@H]1O[C@H](CO)[C@@H](O)[C@H](O)[C@H]1O)[C@H](O)[C@@H](O)[C@H](O)[C@H](O)CO	341 µM	–	–	–
C[C@@H](Cc1ccc(C(C)(C)C)cc1)C(=O)N[C@@H]1O[C@H](CO)[C@@H](O)[C@H](O)[C@H]1O	–	10 ×10⁻⁶ cm/s	0.379	–
O=C(NC(=O)c1ccc(C(F)(F)F)cc1)N[C@@H]1O[C@H](CO)[C@@H](O)[C@H](O)[C@H]1O	1.8 µM	–	–	–
Cc1ccc(-c2cnc(CCC(=O)N[C@@H]3O[C@H](CO)[C@@H](O)[C@H](O)[C@H]3O)o2)cc1	–	5.4 ×10⁻⁶ cm/s	-0.574	–
CCc1ccc(/C=C/C(=O)N[C@@H]2O[C@H](CO)[C@@H](O)[C@H](O)[C@H]2O)cc1	–	9.47 ×10⁻⁶ cm/s	0.04	–
CC(C)(C)c1ccc(C(=O)NC(=O)N[C@@H]2O[C@H](CO)[C@@H](O)[C@H](O)[C@H]2O)cc1	0.7 µM	–	–	–
O=C(Cc1ccccc1)NC(=O)N[C@@H]1O[C@H](CO)[C@@H](O)[C@H](O)[C@H]1O	600 µM	–	–	–
O=C(N[C@@H]1O[C@H](CO)[C@@H](O)[C@H](O)[C@H]1O)C1CCCCC1	289 µM	–	–	–
COC(=O)C(=O)N[C@@H]1O[C@H](CO)[C@@H](O)[C@H](O)[C@H]1O	210 µM	–	–	–
O=C(Nc1ccc2ccccc2c1)C(=O)N[C@@H]1O[C@H](CO)[C@@H](O)[C@H](O)[C@H]1O	56 µM	–	–	–
CC(=O)N[C@@H]1O[C@H](CO)[C@@H](O)[C@H](O)[C@H]1O	32 µM	–	–	–

Results, then the compound that gave them:

Ki ([1]; read-out: Ki)	Papp [2]	logP [3]	Ki [1]	SMILES
68 µM	–	–	–	O=C(NC(=O)c1ccccn1)N[C@@H]1O[C@H](CO)[C@@H](O)[C@H](O)[C@H]1O
1410 µM	–	–	–	O=C(NC1CC1)C(=O)N[C@@H]1O[C@H](CO)[C@@H](O)[C@H](O)[C@H]1O
–	12.2 ×10⁻⁶ cm/s	0.004	–	Cc1ccccc1[C@H](Cc1ccco1)C(=O)N[C@@H]1O[C@H](CO)[C@@H](O)[C@H](O)[C@H]1O
–	14.7 ×10⁻⁶ cm/s	0.085	–	CC(C)(C(=O)N[C@@H]1O[C@H](CO)[C@@H](O)[C@H](O)[C@H]1O)c1cccc2ccccc12
–	–	–	Not Active	O=C(N[C@@H]1O[C@H](CO)[C@@H](O)[C@H](O)[C@H]1O)C(c1ccccc1)c1ccccc1
–	3.17 ×10⁻⁶ cm/s	-1.21	–	O=C(C[C@H]1CC(=O)c2c(F)cc(F)cc21)N[C@@H]1O[C@H](CO)[C@@H](O)[C@H](O)[C@H]1O
–	3.85 ×10⁻⁶ cm/s	-0.221	–	O=C1Cc2ccc(Cl)cc2C=C1C(=O)N[C@@H]1O[C@H](CO)[C@@H](O)[C@H](O)[C@H]1O
329 µM	–	–	–	COC(=O)c1ccc(C(=O)N[C@@H]2O[C@H](CO)[C@@H](O)[C@H](O)[C@H]2O)cc1
–	0.4 ×10⁻⁶ cm/s	-2.1	–	N[C@@H](Cc1c[nH]c2ccccc12)C(=O)N[C@@H]1O[C@H](CO)[C@@H](O)[C@H](O)[C@H]1O
–	0.47 ×10⁻⁶ cm/s	-2.09	–	N[C@H](Cc1c[nH]c2ccccc12)C(=O)N[C@@H]1O[C@H](CO)[C@@H](O)[C@H](O)[C@H]1O
61 µM	–	–	–	O=C(C#Cc1ccccc1)N[C@@H]1O[C@H](CO)[C@@H](O)[C@H](O)[C@H]1O
–	14.5 ×10⁻⁶ cm/s	0.255	–	C[C@@H]1C[C@@]1(C(=O)N[C@@H]1O[C@H](CO)[C@@H](O)[C@H](O)[C@H]1O)c1cccc2ccccc12
580 µM	–	–	–	COC(=O)c1cccc(C(=O)N[C@@H]2O[C@H](CO)[C@@H](O)[C@H](O)[C@H]2O)c1
–	10.6 ×10⁻⁶ cm/s	0.037	–	CC(C)(Oc1ccc2ccccc2c1)C(=O)N[C@@H]1O[C@H](CO)[C@@H](O)[C@H](O)[C@H]1O
–	–	–	Not Active	CC(C)N(C(=O)C(=O)N[C@@H]1O[C@H](CO)[C@@H](O)[C@H](O)[C@H]1O)C(C)C
–	3.89 ×10⁻⁶ cm/s	-0.958	–	COc1ccc(/C=C/C(=O)N[C@@H]2O[C@H](CO)[C@@H](O)[C@H](O)[C@H]2O)c(O)c1
3.5 µM	–	–	–	O=C(/C=C/c1ccc2ccccc2c1)N[C@@H]1O[C@H](CO)[C@@H](O)[C@H](O)[C@H]1O
